Laboratory results reported in patent publication US9518033B2, “(4E)-4-(4-substituted benzylideneamino)-2,3-dihydro-3-substituted-2-thioxothiazole-5-carbonitriles as A2AR antagonist and process for preparation thereof” (COUNCIL OF SCIENTIFIC & INDUSTRIAL RESEARCH, priority 2013, dated 2016).
Several values for one entry are separate records, joined by “and”; a condition that tells them apart may be missing. Identical values can stand only once.

Assays:
human A1R = target: T1, human A1R (Homo sapiens, UniProt P30542); assay: Radioligand competitive binding assay, [3H] DPCPX displacement; conditions: membranes of transfected HEK 293T cells, 1 nM [3H] DPCPX; read-out: Ki A1
T1 construct: expressed in transfected cells; host or cells: HEK 293T
T1 sequence (P30542 1-326): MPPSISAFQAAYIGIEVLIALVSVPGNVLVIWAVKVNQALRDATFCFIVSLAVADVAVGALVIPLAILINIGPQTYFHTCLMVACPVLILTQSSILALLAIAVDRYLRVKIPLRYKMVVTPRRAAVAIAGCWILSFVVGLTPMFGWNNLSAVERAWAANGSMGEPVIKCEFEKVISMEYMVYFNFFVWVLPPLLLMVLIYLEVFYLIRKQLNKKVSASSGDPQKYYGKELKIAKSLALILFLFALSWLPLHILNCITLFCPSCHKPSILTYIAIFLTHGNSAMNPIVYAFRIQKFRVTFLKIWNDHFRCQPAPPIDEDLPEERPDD
Description: (§1) About 1×10^6 cells per ml of transfected HEK 293T cells with human A2AR and A1R were centrifuged at 2,500 rpm for 2 minutes in 15 ml centrifuge tubes. Cells were washed twice with ice-cold PBS (pH 7.4). Pellet of washed cells was resuspended in hypotonic lysis buffer (10 mM NaCl, 2 mM MgCl2, 1 mM DTT, 10 mM Hepes, 2 mM PMSF, pH 7.4) and sonicated (4 cycles of 10 s duration each). Homogenate were centrifuged at 2,500 rpm for 10 minutes at 4° C. Resulting supernatants was again centrifuged at 38,000 rpm for 30 minutes at 4° C. Pellets obtained were resuspended in Tris-HCl (pH 7.4) buffer. Membrane protein concentrations were determined using Lowry method (Lowry et al., 1951). Aliquots of membrane proteins from both A2AR and A1R were rapidly frozen and stored at −20° C. Radioligand [^3H] ZM 241385 and [^3H] DPCPX were purchased from American Radiolabeled Chemicals, St. Louis, USA.
(§2) About 10 μg of membrane protein was added to each well of a 96-well filter plate. Incubation buffer containing adenosine deaminase (2.5 U/ml) was added to the membrane protein and incubated at 37° C. for 1 h, to remove endogenous adenosine. Varying concentrations (1 pM to 1 μM) of test compounds of general formula A was added in duplicate and volume was adjusted to 50 μl by adding incubation buffer. Further, constant concentration of radioligands (1 nM for [^3H] ZM 241385 and 1 nM of [^3H] DPCPX) was added to respective wells and final volume was adjusted to 200 μl by adding the incubation buffer. Filter plates were incubated at 26° C. for 30 minutes and reaction was terminated by rapid filtration of unbound radioligands. Filters containing ligand bound receptors were washed three times with ice-cold washing buffer to completely remove any unbound radioligand or receptor. Finally, 100 μl of scintillation fluid was added to each well and incubated overnight at room temperature. β-counts emitted from bound radioligands ([^3H] ZM241385 and [^3H] DPCPX) were counted using β-counter. Duplicate values of β-counts per minute at corresponding concentrations (1 pM to 1 μM) were added to the data sheet of graph pad prism 4.0. Concentration values were considered as X-values and counts per minute were considered as Y-values (in duplicate). X-values were transformed into log X and Ki value was calculated using nonlinear regression (curve fit program). The calculated Ki values for A2AR and A1R are given bellow (table 1).

human A2AR = target: T2, human A2AR (Homo sapiens, UniProt P29274); assay: Radioligand competitive binding assay, [3H] ZM 241385 displacement; conditions: for Ki: membranes of transfected HEK 293T cells, 1 nM [3H] ZM 241385, read-out: Ki A2A; for A1/A2A (selectivity): ratio Ki A1 / Ki A2A; for binding affinity and selectivity (in words): A2AR over A1R
T2 construct: expressed in transfected cells; host or cells: HEK 293T
T2 sequence (P29274 whole entry): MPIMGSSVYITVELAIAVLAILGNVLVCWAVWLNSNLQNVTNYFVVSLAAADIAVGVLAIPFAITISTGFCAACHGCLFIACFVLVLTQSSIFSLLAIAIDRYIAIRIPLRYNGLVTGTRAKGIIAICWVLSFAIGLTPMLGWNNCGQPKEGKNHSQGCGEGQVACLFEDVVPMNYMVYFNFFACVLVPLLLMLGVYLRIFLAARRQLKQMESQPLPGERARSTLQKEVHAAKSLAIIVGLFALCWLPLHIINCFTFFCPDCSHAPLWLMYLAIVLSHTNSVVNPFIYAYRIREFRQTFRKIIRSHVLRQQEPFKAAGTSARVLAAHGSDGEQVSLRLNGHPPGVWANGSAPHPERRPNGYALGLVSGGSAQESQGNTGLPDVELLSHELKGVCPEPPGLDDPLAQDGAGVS
Description: as §1, with “Cells” for “About 1×10^6 cells per ml of transfected HEK 293T cells with human A2AR and A1R were centrifuged at 2,500 rpm for 2 minutes in 15 ml centrifuge tubes. Cells”, “Membrane protein concentrations were determined using Lowry method (Lowry et al., 1951).” left out, “ZM 241385 and [^3H]” left out
as §2, with “Further, constant concentration of radioligands (1 nM for [^3H] ZM 241385 and 1 nM of [^3H] DPCPX) was added to respective wells and final volume was adjusted to 200 μl by adding the incubation buffer.” left out, “program).” for “program). The calculated Ki values for A2AR and A1R are given bellow (table 1).”

[1] = system: haloperidol induced catalepsy; assay: Haloperidol induced catalepsy in mice; format: in vivo, Swiss Albino male mice; conditions: for catalepsy score: haloperidol 2.5 mg/kg, after 120 min
Description: Adult Swiss Albino male mice (4-6 weeks, 20-30 g) were pro-cured from National Institute of Communicable Diseases, Delhi, India and were kept under controlled conditions of temperature (22±1° C.), humidity (60±5%), and illumination (12 h light; 12 h darkness) at the animal house, Dr. B. R. Ambedkar Centre for Bio-medical Research, University of Delhi, Delhi, India. The experimental protocol met the National Guidelines on the ‘Proper Care and Use of Animals in Laboratory Research’ (Indian National Science Academy, New Delhi) and was approved by the Animal Ethics Committee of the department. The procedures adhered to the NIH Guidelines for the Care and Use of Laboratory Animals.
Double distilled filtered and deionized water (Milli-Q-system Waters, Milford, Mass.) was used through out the study. […] Mice were divided into seven groups of four mice each. […] Saline and 1% acacia in saline were injected to two control groups.
The inability of an animal to correct an externally imposed posture (Catalepsy score) was measured at different time intervals with both limbs on a square wooden block (3 cm high) by placing the animals on a flat horizontal surface. The length of time that animals held the bar without any voluntary movement was recorded, with a cutoff time of 3 min. Catalepsy score of each mice in a group was taken to compute the mean value of the group.

human A2A receptors = target: T3, human A2A receptors (Homo sapiens, UniProt P29274); assay: cAMP functional assay in NECA stimulated HEK293T cells; format: cell-based
T3 construct: expressed in transfected cells; host or cells: HEK 293T
T3 sequence (P29274 whole entry): as above
Description: Standard curve was prepared using Logit-Log Paper plot by drawing percent bound (B/Bo) versus concentration of cAMP for the standards. The concentration of the cAMP in the samples was determined by interpolation.

[2] = 10 mg/kg ip pre-treatment, mean±SEM, n=4

Compound | Ki (human A1R) [nM] | Ki (human A2AR) | A1/A2A (selectivity) (human A2AR) | other results
CCCn1c(/N=C/c2ccc(Cl)cc2)c(C#N)sc1=S [Compound 2g, (4E)4-(4-chlorobenzylideneamino)-3-propyl-2,3-dihydro-2-thioxothiazole-5-carbonitrile] | 2.32 | 54.8 nM | 0.042 | 
N#Cc1sc(=S)n(-c2ccccc2)c1/N=C/c1ccc(Br)cc1 [Compound 2n, (4E)4-(4-bromobenzylideneamino)-3-phenyl-2,3-dihydro-2-thioxothiazole-5-carbonitrile] | 186 | 0.004 nM and 0.0042 nM |  | melting point: 185 to 187 °C; catalepsy score [1, 2]: 0.75±0.144; catalepsy score ([1]; pre-treatment at 5, 10, 15, 20 mg/kg): 0.75±0.140; catalepsy score, compound alone ([1]; without haloperidol, up to 120 minutes): zero
CCCn1c(/N=C/c2ccc(F)cc2)c(C#N)sc1=S [Compound 2b, (4E)4-(4-fluorobenzylideneamino)-3-propyl-2,3-dihydro-2-thioxothiazole-5-carbonitrile] | 102 | 0.03 nM | 3393.3 | binding affinity and selectivity (in words) (human A2AR): both high binding affinity and selectivity
Nc1nc2c(cnn2CCc2ccccc2)c2nc(-c3ccco3)nn12 [SCH58261, reference compound] |  |  |  | cAMP concentration (human A2A receptors): 0.55 pmol/mL; catalepsy score [1, 2]: 0.65±0.125; catalepsy score ([1]; 10 mg/kg ip pre-treatment, mean±SEM, n=4, listed as SCH 58261): 0.625±0.125; selectivity to A2AR (human A2AR; reference SCH58261): 483 fold
N#Cc1sc(=S)n(-c2ccccc2)c1/N=C/c1ccc(F)cc1 [Compound 2e, (4E)-4-(4-flurobenzylideneamino)-3-phenyl-2,3-dihydro-2-thioxothiazole-5-carbonitrile] |  | 0.0047 nM | 0.13 | 
CCn1c(/N=C/c2ccc(Cl)cc2)c(C#N)sc1=S [Compound 2f, (4E)-4-(4-chlorobenzylideneamino)-3-ethyl-2,3-dihydro-2-thioxothiazole-5-carbonitrile] |  |  | 13.76 | 
CCn1c(/N=C/c2ccc(F)cc2)c(C#N)sc1=S [Compound 2a, (4E)-4-(4-fluorobenzylideneamino)-3-ethyl-2,3-dihydro-2-thioxothiazole-5-carbonitrile] |  | 11 nM | 0.000053 | 
N#Cc1sc(=S)n(CCc2ccccc2)c1/N=C/c1ccc(Br)cc1 [Compound 2m, (4E)4-(4-bromobenzylideneamino)-3-phenylethyl-2,3-dihydro-2-thioxothiazole-5-carbonitrile] | 0.25 | 0.067 nM | 3.73 | 
N#Cc1sc(=S)n(CCc2ccccc2)c1N=Cc1ccc(F)cc1 [Compound 2d, (4E)-4-(4-flurobenzylideneamino)-3-phenylethyl-2,3-dihydro-2-thioxothiazole-5-carbonitrile] | 889 | 2.64 nM | 336.81 | 
CCn1c(/N=C/c2ccc(Br)cc2)c(C#N)sc1=S [Compound 2j, (4E)-4-(4-Bromobenzylideneamino)-3-ethyl-2,3-dihydro-2-thioxothiazole-5-carbonitrile] |  | 0.01 nM | 0.074 | 
CCCCn1c(/N=C/c2ccc(Br)cc2)c(C#N)sc1=S [Compound 2l, (4E)-4-(4-bromobenzylideneamino)-3-butyl-2,3-dihydro-2-thioxothiazole-5-carbonitrile] | 0.1 | 7.61 nM | 0.013 | 
N#Cc1sc(=S)n(-c2ccccc2)c1/N=C/c1ccc(Cl)cc1 [Compound 2i, (4E)4-(4-chlorobenzylideneamino)-3-phenyl-2,3-dihydro-2-thioxothiazole-5-carbonitrile] | 413 | 0.14 nM | 2947 and 2947.85 | melting point: 187 to 189 °C; binding affinity and selectivity (in words) (human A2AR): both high binding affinity and selectivity
CCCn1c(/N=C/c2ccc(Br)cc2)c(C#N)sc1=S [Compound 2k, (4E)4-(4-bromobenzylideneamino)-3-propyl-2,3-dihydro-2-thioxothiazole-5-carbonitrile] | 607 | 1.8 nM | 337.05 | 
CCCCn1c(/N=C/c2ccc(Cl)cc2)c(C#N)sc1=S [Compound 2h] | 24600 | 9.6 nM | 2565 and 2565.62 | binding affinity and selectivity (in words) (human A2AR): both high binding affinity and selectivity
CCCCn1c(N=Cc2ccc(F)cc2)c(C#N)sc1=S [Compound 2c, (4E)-4-flurobenzylideneamino)-3-butyl-2,3-dihydro-2-thioxothiazole-5-carbonitrile] | 16.7 | 0.027 nM | 618.51 | 
